Assay results from PubChem BioAssay (NCI).
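Test compounds were applied to cells in 96-well plates for 48 hours at 5 doses. At the GI50, growth is halved. TGI denotes the concentration required for complete inhibition of growth.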

Legend:
Test in all cases: NCI-60 cell line screen, 48 h; in the data active = GI50 below about 0.43 µM; inactive = the rest
[1] = system: SF-268 CNS
[2] = system: NCI-H460 lung
[3] = system: SK-OV-3 ovarian
[4] = system: NCI-H226 lung
[5] = system: SN12C renal
[6] = system: UACC-257 melanoma
[7] = system: K-562 leukemia
[8] = system: NCI-H23 lung
[9] = system: HOP-62 NSCLC
[10] = system: TK-10 renal
[11] = system: 786-0 renal
[12] = system: MDA-MB-435
[13] = system: LOX IMVI melanoma
[14] = system: CCRF-CEM leukemia
[15] = system: SK-MEL-5 melanoma
[16] = system: SNB-19 CNS
[17] = system: OVCAR-8 ovarian
[18] = system: SR leukemia
[19] = system: ACHN renal
[20] = system: PC-3 prostate
[21] = system: HT29 colon
[22] = system: HCT-116 colon
[23] = system: A498 renal
[24] = system: HOP-92 NSCLC
[25] = system: T-47D breast
[26] = system: KM12 colon
[27] = system: SK-MEL-28 melanoma
[28] = system: HCC-2998 colon
[29] = system: MOLT-4 leukemia
[30] = system: UO-31 renal
[31] = system: OVCAR-5 ovarian
[32] = system: HS 578T breast
[33] = system: EKVX NSCLC
[34] = system: UACC-62 melanoma
[35] = system: RPMI-8226 leukemia
[36] = system: NCI-H522 lung
[37] = system: RXF 393 renal
[38] = system: MDA-MB-231 breast
[39] = system: NCI/ADR-RES ovarian
[40] = system: DU-145 prostate
[41] = system: HL-60(TB) leukemia
[42] = system: OVCAR-3 ovarian
[43] = system: BT-549 breast
[44] = system: HCT-15 colon
[45] = system: CAKI-1 renal
[46] = system: A549 NSCLC
[47] = system: SF-295 CNS
[48] = system: MALME-3M melanoma
[49] = system: U251 CNS
[50] = system: SW-620 colon
[51] = system: MCF7 breast
[52] = system: OVCAR-4 ovarian
[53] = system: IGROV1 ovarian
[54] = system: SNB-75 CNS
[55] = system: SK-MEL-2 melanoma
[56] = system: COLO 205 colon
[57] = system: SF-539 CNS

O=C1C=C(NCCc2ccc(O)cc2)C(=O)C=C1NCCc1ccc(O)cc1
92.5 µM: TGI [49]
71.2 µM: TGI [41]
47.5 µM: TGI [54]
> 100 µM: TGI [1] | TGI [2] | TGI [3] | TGI [4] | TGI [5] | TGI [6] | TGI [7] | TGI [8] | TGI [9] | TGI [10] | TGI [11] | TGI [12] | TGI [13] | TGI [14] | TGI [15] | TGI [16] | TGI [17] | TGI [18] | TGI [19] | TGI [20] | TGI [21] | TGI [22] | TGI [23] | TGI [24] | TGI [25] | TGI [26] | TGI [27] | TGI [28] | TGI [29] | TGI [30] | TGI [31] | TGI [32] | TGI [33] | TGI [34] | TGI [35] | TGI [36] | TGI [37] | TGI [38] | TGI [39] | TGI [40] | TGI [42] | TGI [43] | TGI [44] | TGI [45] | TGI [46] | TGI [47] | TGI [48] | TGI [50] | TGI [51] | TGI [52] | TGI [53] | TGI [55] | TGI [56]

COc1cccc(-c2nn(C)c3sc(C(=O)NCCN4CCN(c5ccccc5F)CC4)cc23)c1
29 µM: TGI [47]
51.3 µM: TGI [21]
84.5 µM: TGI [34]
59.5 µM: TGI [49]
95.3 µM: TGI [54]
47.8 µM: TGI [30]
33.4 µM: TGI [27]
26.2 µM: TGI [15]
62.4 µM: TGI [38]
15.5 µM: TGI [44]
27.3 µM: TGI [23]
96.6 µM: TGI [31]
53.5 µM: TGI [48]
91.5 µM: TGI [45]
inactive: GI50 [1] 46.9 µM | GI50 [2] 14.8 µM | GI50 [57] 9.45 µM | GI50 [3] > 100 µM | GI50 [4] 31.3 µM | GI50 [5] 79.5 µM | GI50 [6] 28.4 µM | GI50 [7] 3.78 µM | GI50 [8] 34.5 µM | GI50 [9] 25.8 µM | GI50 [10] 65.4 µM | GI50 [11] 5.24 µM | GI50 [12] 10.5 µM | GI50 [13] 13.4 µM | GI50 [14] 8.54 µM | GI50 [15] 6.38 µM | GI50 [16] 21 µM | GI50 [17] 7.85 µM | GI50 [18] 5.43 µM | GI50 [19] 19.2 µM | GI50 [20] 11.5 µM | GI50 [21] 4.66 µM | GI50 [22] 9.91 µM | GI50 [23] 1.29 µM | GI50 [24] 13.4 µM | GI50 [25] 4.32 µM | GI50 [26] 10.1 µM | GI50 [27] 11.1 µM | GI50 [28] 7.06 µM | GI50 [29] 5.15 µM | GI50 [30] 4.56 µM | GI50 [31] 6.55 µM | GI50 [32] 26.2 µM | GI50 [34] 10.5 µM | GI50 [35] 6.51 µM | GI50 [36] 18.8 µM | GI50 [37] 3.17 µM | GI50 [38] 3.87 µM | GI50 [39] 13.8 µM | GI50 [40] 34.2 µM | GI50 [41] 33.1 µM | GI50 [42] 20.6 µM | GI50 [43] > 100 µM | GI50 [44] 3.18 µM | GI50 [45] 9.02 µM | GI50 [46] 15.3 µM | GI50 [47] 4.85 µM | GI50 [48] 9.49 µM | GI50 [49] 7.14 µM | GI50 [50] 33.7 µM | GI50 [51] 6.54 µM | GI50 [52] 19.1 µM | GI50 [53] > 100 µM | GI50 [54] 3.59 µM | GI50 [55] 33.9 µM | GI50 [56] 20.6 µM
> 100 µM: TGI [1] | TGI [2] | TGI [57] | TGI [3] | TGI [4] | TGI [5] | TGI [6] | TGI [7] | TGI [8] | TGI [9] | TGI [10] | TGI [12] | TGI [13] | TGI [14] | TGI [16] | TGI [17] | TGI [18] | TGI [19] | TGI [20] | TGI [22] | TGI [24] | TGI [25] | TGI [26] | TGI [28] | TGI [29] | TGI [32] | TGI [35] | TGI [36] | TGI [37] | TGI [39] | TGI [40] | TGI [41] | TGI [42] | TGI [43] | TGI [46] | TGI [50] | TGI [51] | TGI [52] | TGI [53] | TGI [55] | TGI [56]
25.1 µM: TGI [11]
